# Legend:
# [1] = Effect of halamine NPs and SUTP on mature tartar removal on human teeth (10 min stirring, then brushing)
# Experimental: The effect of halamines nanoparticles (as presented in Table 1) and SUTP compounds on mature tartar removal on human teeth were studied. 5 mL of each aqueous suspension were added to a 20 mL vial, and a tooth with tartar was added to each vial. Then, the solutions were stirred for 10 min at room temperature. After 10 minutes the teeth were brushed using a soft toothbrush and a photo of the tooth were taken.
# [2] = Effect of SUTP, poly(StBP) NPs and γ-Glu-BP on human teeth (incubation, brushing, overnight re-incubation); conditions: for precipitate of tartar during incubation: 1 mg/ml aqueous solution, 4 ml, pH=4, RT, after 15 min of incubation; for cleaning of teeth from tartar (photographs): 1 mg/ml, pH=4, RT 1 hr, brushing, new solution overnight, washed with DDW
# Experimental: The effect of SUTP (Example 1), poly(StBP) NPs (Example 4), and γ-Glu-BP (Example 2) on human teeth was evaluated as followed:
# Teeth were incubated in three separate aqueous solutions of: SUTP, poly(StBP) NPs, and γ-Glu-BP (1 mg/ml, 4 ml, pH=4) at RT for 1 hr. […] The teeth were then brushed by a toothbrush to remove the remain tartar layer on the teeth and were incubated in new solutions of SUTP, poly(StBP) NPs, and γ-Glu-BP overnight. Then, the teeth were washed by DDW and were photographed.
# [3] = Comparison of succinyl tetraphosphonate and two industrial pyrophosphates on human teeth having mature tartar; conditions: for mature tartar removal (images before and after treatment): 1 mg/ml in PBS, pH=7, 5 ml, shaken 10 min, then brushed 2 min
# Experimental: The effect of succinyl tetraphosphonate and two types of industrial pyrophosphates on human teeth having mature tartar as were evaluated as followed:
# Human teeth were incubated and shaken in 5 ml solution of PBS with SUTP ((a) see structure below), sodium pyrophosphate tetrabasic ((b) see structure below) and sodium pyrophosphate dibasic ((c) see structure below) (1 mg/ml, pH=7) for 10 min. Then, the teeth were brushed by a toothbrush for 2 min. Images were captured before and after treatment FIG. 6 (with SUTP), FIG. 7 (with sodium pyrophosphate tetrabasic), and FIG. 8 (with sodium pyrophosphate dibasic).
smiles,measurement,setting,value
"O=P(O)(O)C(O)(CCC(O)(P(=O)(O)O)P(=O)(O)O)P(=O)(O)O [SUTP, Succinyl tetra phosphonate]",tartar removal from tooth,"[1]; 1 mg/mL, pH 3-4, 10 min stirring and brushing",partially clean
same,tartar removal from tooth,"[1]; 1 mg/mL, pH 6-7, 10 min stirring and brushing",partially clean
same,tartar removal from tooth,"[1]; 10 mg/mL, pH 3-4, 10 min stirring and brushing",completely clean
same,precipitate of tartar during incubation,[2],a new precipitate of tartar was observed spontaneously
same,cleaning of teeth from tartar (photographs),[2],cleaning of dirty teeth from tartar
same,mature tartar removal (images before and after treatment),[3],a significant mature tartar was removed
same,cloudiness of the solution after the teeth brushing (tartar removed from the teeth),"[3]; 1 mg/ml, solution captured after teeth brushing",significantly cloudier than the others
"O=P([O-])(O)OP(=O)([O-])O.[Na+].[Na+] [Sodium pyrophosphate dibasic, sodium pyrophosphate dibasic, reference compound]",mature tartar removal (images before and after treatment),[3],did not remove the mature tartar
"O=P([O-])([O-])OP(=O)([O-])[O-].[Na+].[Na+].[Na+].[Na+] [Sodium pyrophosphate tetrabasic, sodium pyrophosphate tetrabasic, reference compound]",mature tartar removal (images before and after treatment),[3],did not remove the mature tartar
NC(CCC(O)(P(=O)(O)O)P(=O)(O)O)C(=O)O (centres unmarked) [γ-Glu-BP],precipitate of tartar during incubation,[2],a new precipitate of tartar was observed spontaneously
same,cleaning of teeth from tartar (photographs),[2],cleaning of dirty teeth from tartar
